Measured values reported in the NIST ThermoML archive (doi:10.1016/j.tca.2019.178319).
± gives the expanded uncertainty stated by the source.

Conditions: Crystal; for mass density: 298 K, 101.33 kPa, X-ray diffraction; for Normal melting temperature: DTA

Structure (SMILES) | mass density [kg/m3] | Normal melting temperature [°C]
[I][Bi]([I])[I] [bismuth triiodide] | 5770 ± 20 | 407 ± 4
[Bi+3].[Bi+3].[Se-2].[Se-2].[Se-2] [bismuth(III) selenide] | 7660 ± 30 | 707 ± 6
[Bi+3].[Bi+3].[S-2].[S-2].[S-2] [bismuth(III) sulfide] | 6800 ± 20 | 777 ± 6
